# Measurements taken from patent publication US20150218173A1, “SUBSTITUTED INDAZOL-PYRROLOPYRIMIDINES USEFUL IN THE TREATMENT OF HYPERFOLIFERATIVE DISORDERS” (BAYER PHARMA AKTIENGESELLSCHAFT, priority 2012, published 2015).
# Target: T1, human full-length MKNK1 (Homo sapiens, UniProt Q9BUB5, T385D)
# T1 construct: GST (N); purchased Carna Biosciences 02-145; host or cells: insect cells (baculovirus expression system)
# Assay: MKNK1 kinase high ATP assay (TR-FRET)
# Type: biochemical
# Settings: high ATP (2 mM final), 15 min preincubation with enzyme
# Experimental: MKNK1-inhibitory activity at high ATP of compounds of the present invention after their preincubation with MKNK1 was quantified employing the TR-FRET-based MKNK1 high ATP assay as described in the following paragraphs.
# A recombinant fusion protein of Glutathione-S-Transferase (GST, N-terminally) and human full-length MKNK1 (amino acids 1-424 and T344D of accession number BAA 19885.1), expressed in insect cells using baculovirus expression system and purified via glutathione sepharose affinity chromatography, was purchased from Carna Biosciences (product no 02-145) and used as enzyme. As substrate for the kinase reaction the biotinylated peptide biotin-Ahx-IKKRKLTRRKSLKG (C-terminus in amide form) was used, which can be purchased e.g. from the company Biosyntan (Berlin-Buch, Germany).
# For the assay 50 nL of a 100 fold concentrated solution of the test compound in DMSO was pipetted into a black low volume 384 well microtiter plate (Greiner Bio-One, Frickenhausen, Germany), 2 μL of a solution of MKNK1 in aqueous assay buffer [50 mM HEPES pH 7.5, 5 mM MgCl2, 1.0 mM dithiothreitol, 0.005% (v/v) Nonidet-P40 (Sigma)] was added and the mixture was incubated for 15 min at 22° C. to allow pre-binding of the test compounds to the enzyme before the start of the kinase reaction. Then the kinase reaction was started by the addition of 3 μL of a solution of adenosine-tri-phosphate (ATP, 3.3 mM=>final conc. in the 5 μL assay volume is 2 mM) and substrate (0.1 μM=>final conc. in the 5 μL assay volume is 0.06 μM) in assay buffer and the resulting mixture was incubated for a reaction time of 30 min at 22° C. The concentration of MKNK1 was adjusted depending of the activity of the enzyme lot and was chosen appropriate to have the assay in the linear range, typical concentrations were in the range of 0.003 μg/mL. The reaction was stopped by the addition of 5 μL of a solution of TR-FRET detection reagents (5 nM streptavidine-XL665 [Cisbio Bioassays, Codolet, France] and 1 nM anti-ribosomal protein S6 (pSer236)-antibody from Invitrogen [#44921G] and 1 nM LANCE EU-W1024 labeled ProteinG [Perkin-Elmer, product no. AD0071]) in an aqueous EDTA-solution (100 mM EDTA, 0.1% (w/v) bovine serum albumin in 50 mM HEPES pH 7.5).
# The resulting mixture was incubated for 1 h at 22° C. to allow the formation of complex between the phosphorylated biotinylated peptide and the detection reagents. Subsequently the amount of phosphorylated substrate was evaluated by measurement of the resonance energy transfer from the Eu-chelate to the streptavidine-XL. Therefore, the fluorescence emissions at 620 nm and 665 nm after excitation at 350 nm were measured in a TR-FRET reader, e.g. a Rubystar (BMG Labtechnologies, Offenburg, Germany) or a Viewlux (Perkin-Elmer). The ratio of the emissions at 665 nm and at […] was taken as the measure for the amount of phosphorylated substrate. The data were normalised (enzyme reaction without inhibitor=0% inhibition, all other assay components but no enzyme=100% inhibition).
# T1 sequence (Q9BUB5 1-424 isoform Q9BUB5-2 T344D): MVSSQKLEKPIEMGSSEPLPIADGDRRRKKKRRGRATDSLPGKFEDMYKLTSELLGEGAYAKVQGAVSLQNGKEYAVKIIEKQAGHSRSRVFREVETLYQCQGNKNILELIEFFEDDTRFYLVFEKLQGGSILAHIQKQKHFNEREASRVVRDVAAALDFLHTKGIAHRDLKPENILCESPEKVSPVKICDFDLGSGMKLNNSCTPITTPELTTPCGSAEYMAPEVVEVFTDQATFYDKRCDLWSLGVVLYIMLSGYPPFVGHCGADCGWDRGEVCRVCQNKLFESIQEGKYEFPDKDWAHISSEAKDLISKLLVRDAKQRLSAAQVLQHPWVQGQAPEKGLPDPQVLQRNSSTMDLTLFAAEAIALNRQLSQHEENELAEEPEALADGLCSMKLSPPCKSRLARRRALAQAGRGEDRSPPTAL
row,SMILES,IC50
1,"c1ccc(CCc2cc3c(Nc4ccc5[nH]ncc5c4)ncnc3[nH]2)cc1 [Example 26, N-(1H-Indazol-5-yl)-6-(2-phenylethyl)-7H-pyrrolo[2,3-d]pyrimidin-4-amine]",0.08 µM
2,"O=C(NC1CCOCC1)c1cc2c(Nc3ccc4[nH]ncc4c3)ncnc2[nH]1 [Example 25, 4-(1H-Indazol-5-ylamino)-N-(tetrahydro-2H-pyran-4-yl)-7H-pyrrolo[2,3-d]pyrimidine-6-carboxamide]",0.008 µM
3,"FC(F)(F)c1c[nH]c2ncnc(Nc3ccc4[nH]ncc4c3)c12 [Example 35, N-(1H-Indazol-5-yl)-5-(trifluoromethyl)-7H-pyrrolo[2,3-d]pyrimidin-4-amine]",0.037 µM
4,"O=C(NCCO)c1cc2c(Nc3ccc4[nH]ncc4c3)ncnc2[nH]1 [Example 20, N-(2-Hydroxyethyl)-4-(1H-indazol-5-ylamino)-7H-pyrrolo[2,3-d]pyrimidine-6-carboxamide]",0.009 µM
5,"Fc1ccc(-c2c[nH]c3ncnc(Nc4ccc5[nH]ncc5c4)c23)cc1 [Example 12, 5-(4-Fluorophenyl)-N-(1H-indazol-5-yl)-7H-pyrrolo[2,3-d]pyrimidin-4-amine]",0.016 µM
6,"CCc1c[nH]c2ncnc(Nc3ccc4[nH]ncc4c3)c12 [Example 40, 5-Ethyl-N-(1H-indazol-5-yl)-7H-pyrrolo[2,3-d]pyrimidin-4-amine]",0.029 µM
7,"C[C@H]1COCCN1C(=O)c1[nH]c2ncnc(Nc3ccc4[nH]ncc4c3)c2c1Br [Example 43, [5-Bromo-4-(1H-indazol-5-ylamino)-7H-pyrrolo[2,3-d]pyrimidin-6-yl][(3S)-3-methylmorpholin-4-yl]methanone]",0.075 µM
8,"O=C(c1cc2c(Nc3ccc4[nH]ncc4c3)ncnc2[nH]1)N1CCCC1 [Example 21, [4-(1H-Indazol-5-ylamino)-7H-pyrrolo[2,3-d]pyrimidin-6-yl](pyrrolidin-1-yl)methanone]",0.008 µM
9,"Cc1ccc(S(=O)(=O)c2cc3c(Nc4ccc5[nH]ncc5c4)ncnc3[nH]2)cc1 [Example 37, N-(1H-Indazol-5-yl)-6-[(4-methylphenyl)sulfonyl]-7H-pyrrolo[2,3-d]pyrimidin-4-amine]",0.002 µM
10,"CC(C)Cc1[nH]c2ncnc(Nc3ccc4[nH]ncc4c3)c2c1C(C)C [Example 39, N-(1H-Indazol-5-yl)-6-(2-methylpropyl)-5-(propan-2-yl)-7H-pyrrolo[2,3-d]pyrimidin-4-amine]",0.021 µM
11,"Brc1c[nH]c2ncnc(Nc3ccc4[nH]ncc4c3)c12 [Example 2, 5-Bromo-N-(1H-indazol-5-yl)-7H-pyrrolo[2,3-d]pyrimidin-4-amine]",0.01 µM
12,"C(=C\c1cc2c(Nc3ccc4[nH]ncc4c3)ncnc2[nH]1)/c1ccccc1 [Example 10, N-(1H-Indazol-5-yl)-6-[(E)-2-phenylethenyl]-7H-pyrrolo[2,3-d]pyrimidin-4-amine]",0.006 µM
13,"CCCc1[nH]c2ncnc(Nc3ccc4[nH]ncc4c3)c2c1CC [Example 34, 5-Ethyl-N-(1H-indazol-5-yl)-6-propyl-7H-pyrrolo[2,3-d]pyrimidin-4-amine]",0.013 µM
14,"O=S(=O)(c1ccccc1)c1cc2c(Nc3ccc4[nH]ncc4c3)ncnc2[nH]1 [Example 36, N-(1H-Indazol-5-yl)-6-(phenylsulfonyl)-7H-pyrrolo[2,3-d]pyrimidin-4-amine]",0.001 µM
15,"CCOC(=O)c1[nH]c2ncnc(Nc3ccc4[nH]ncc4c3)c2c1C [Example 29, Ethyl 4-(1H-indazol-5-ylamino)-5-methyl-7H-pyrrolo[2,3-d]pyrimidine-6-carboxylate]",0.013 µM
16,"c1cncc(-c2c[nH]c3ncnc(Nc4ccc5[nH]ncc5c4)c23)c1 [Example 13, N-(1H-Indazol-5-yl)-5-(pyridin-3-yl)-7H-pyrrolo[2,3-d]pyrimidin-4-amine]",0.009 µM
17,"c1ccc(-c2c[nH]c3ncnc(Nc4ccc5[nH]ncc5c4)c23)cc1 [Example 15, N-(1H-Indazol-5-yl)-5-phenyl-7H-pyrrolo[2,3-d]pyrimidin-4-amine]",0.016 µM
18,"CN1CCN(C(=O)c2cc3c(Nc4ccc5[nH]ncc5c4)ncnc3[nH]2)CC1 [Example 23, [4-(1H-Indazol-5-ylamino)-7H-pyrrolo[2,3-d]pyrimidin-6-yl](4-methylpiperazin-1-yl)methanone]",0.009 µM
19,"CC(C)c1cc2c(Nc3ccc4[nH]ncc4c3)ncnc2[nH]1 [Example 19, N-(1H-Indazol-5-yl)-6-(propan-2-yl)-7H-pyrrolo[2,3-d]pyrimidin-4-amine]",0.039 µM
20,"Cc1c[nH]c2ncnc(Nc3ccc4[nH]ncc4c3)c12 [Example 18, N-(1H-Indazol-5-yl)-5-methyl-7H-pyrrolo[2,3-d]pyrimidin-4-amine]",0.022 µM
21,"C=Cc1cc2c(Nc3ccc4[nH]ncc4c3)ncnc2[nH]1 [Example 9, 6-Ethenyl-N-(1H-indazol-5-yl)-7H-pyrrolo[2,3-d]pyrimidin-4-amine]",0.007 µM
22,"Cc1cc2c(Nc3ccc4[nH]ncc4c3)ncnc2[nH]1 [Example 7, N-(1H-Indazol-5-yl)-6-methyl-7H-pyrrolo[2,3-d]pyrimidin-4-amine]",0.031 µM
23,"CCc1[nH]c2ncnc(Nc3ccc4[nH]ncc4c3)c2c1C [Example 1, 6-Ethyl-N-(1H-indazol-5-yl)-5-methyl-7H-pyrrolo[2,3-d]pyrimidin-4-amine]",0.058 µM
24,"O=C(c1[nH]c2ncnc(Nc3ccc4[nH]ncc4c3)c2c1Br)N1CCOCC1 [Example 44, [5-Bromo-4-(1H-indazol-5-ylamino)-7H-pyrrolo[2,3-d]pyrimidin-6-yl](morpholin-4-yl)methanone]",0.048 µM
